Patent EP4647073A1, “MURRAYA KOENIGII IN THE TREATMENT OF UPPER RESPIRATORY TRACT INFECTIONS” (Nutraceutical Technology Pharma Biotech S.r.l., priority 2024, dated 2025)

Legend:
S. pyogenes = experiment: TTC assay (broth microdilution) for MIC and MBC determination; type: cell-based, Streptococcus pyogenes; details: for inhibition at 250 µg/mL (stock) / OD 480 nm (24 h) / OD 600 nm (24 h) / log10 (CFU/ml): duplicate wells
Protocol: Louis, MO) as colorimetric indicator. In the presence of living bacteria, the colourless TTC is reduced to red formazan. […] Two different stock solutions of M. koenigii leaves were prepared in DMSO at concentrations of 100 mg/ml (1:10) and 20 mg/ml (1:50). Two-fold dilution method was performed in order to obtain a concentration range of 0.04 mg/ml to 10 mg/ml for the 20 mg/ml stock solution and of 0.2 mg/ml to 50 mg/ml for the 100 mg/ml stock solution. An overnight anaerobic culture of S. pyogenes grown at 37°C was adjusted to a final concentration of 1x10^7 CFU/ml in M17 broth ([…] Abruzzi, Italy) and added to the microplate wells containing different concentrations of the extract, in order to obtain a final inoculum of approximately 1x10^6 CFU/well. The microplate was incubated at 37°C under anaerobic conditions for 24 h. […] To discriminate between bactericidal/bacteriostatic activity of the extract, 100 μl aliquots from each tested dilution were used to calculate the number of viable cells (CFU/ml) by plate count method and 10 μl aliquots from the same wells were streaked on M17 agar plates (Figure 3). […] TTC assay is depicted in Figure 4, where a picture of the microplate used for the TTC assay is reported. […] Table 2: Antibacterial activity of DMSO extract of M. koenigii leaves against S. pyogenes. All results are the mean of triplicates wells. […] Medium M17 (blank), positive control (S. pyogenes without M. koenigii), Ext. (Extract). A stock solution of amoxicillin (Sigma-Aldrich, St. Louis, USA) was prepared at a concentration of 0.25 mg/ml in DMSO. The antibacterial properties against S. pyogenes of the plant extract alone, amoxicillin alone and their combination were evaluated by TTC assay as mentioned above. For the experiment, the 20 mg/ml stock solution of M. koenigii leaves was used and a solution containing 0.25 mg/ml amoxicillin and 20 mg/ml extract was prepared.

S. pyogenes (ATCC 19615) = experiment: Agar well diffusion method, antibacterial activity; type: cell-based; details: Streptococcus pyogenes
Protocol: The agar well diffusion method was used for the assessment of the antibacterial activity of M. koenigii leaves against S. pyogenes (ATCC 19615). Six DMSO extracts of M. koenigii leaves from different geographical origins were tested. Antibacterial assay was performed on M17 agar ([…] Abruzzi, Italy). An overnight anaerobic culture of S. pyogenes grown at 37°C, was diluted in order to obtain a suspension containing approximately 1×10^8 CFU/ml. Each agar plate was spread with the microbial suspension. Using a sterile agar gel puncher, equidistant wells were created and filled with 0.1 ml of each sample. The plates were allowed to stand for 30 minutes to allow pre-diffusion of the tested samples, and thereafter incubated at 37°C for 24 h under anaerobic conditions. After incubation, the diameter of any zone of inhibition surrounding each well was measured. Each experiment was performed in triplicates and the means were calculated. […] Louis, USA). Each standard was weighed separately, solubilized in methanol and diluted in DMSO. […] Antibacterial assay was performed on M17 agar ([…] Abruzzi, 25 Italy). An overnight anaerobic culture of S. pyogenes, grown at 37°C, was diluted approximately to obtain 1×10^8 CFU/ml and spread on M17 agar. Using a sterile agar gel puncher, equidistant wells were created and filled with 0.1 ml of each extraction solvent. The plate was allowed to stand for 30 minutes to allow pre-diffusion of the tested samples, and thereafter incubated at 37°C. The zone of inhibition around each well was measured in mm.

[1] = Release of carbazole alkaloids from the chewing gum of Example 5 during chewing (HPLC/DAD of chewed bolus); type: in vivo, healthy adult volunteers; details: average of three chewers
Protocol: The chromatographic separation was performed by an HPLC/DAD system series 1200 from Agilent (Agilent Technologies, Santa […], California, USA); the analytical column was a Kinetex C18 5um, 100A (150 mm x 3.00 mm i.d.) from Phenomenex (Phenomenex SRL, Bologna; Italy) equipped with a security guard column. […] The elution of the analytes was carried out with a gradient method: initial condition was 40% of ACN, then brought to 90% in 10 minutes and kept for 8 minutes. […] An aliquot of each solution was withdrawn in order to prepare a mix standard solution and a calibration curve from 0.5 ppm to 4.0 ppm in MeOH was created for the quantification of samples. […] Each chewed bolus of the resulting 4 chewing tests, was frozen overnight and then weighed, ground and added with MeOH. The supernatant was filtered and analysed by HPLC/DAD. In Table 4 below, the release results are reported, being focused on the main actives of M. koenigii. Table 4: […]

[2] = Table 3, dilution 1:2 of stock (amoxicillin 0.25 mg/ml; mix 0.25 mg/ml amoxicillin and 20 mg/ml extract)
[3] = Table 3, dilution 1:4 of stock (amoxicillin 0.25 mg/ml; mix 0.25 mg/ml amoxicillin and 20 mg/ml extract)
[4] = Table 3, dilution 1:8 of stock (amoxicillin 0.25 mg/ml; mix 0.25 mg/ml amoxicillin and 20 mg/ml extract)
[5] = Table 3, dilution 1:16 of stock (amoxicillin 0.25 mg/ml; mix 0.25 mg/ml amoxicillin and 20 mg/ml extract)
[6] = Table 3, dilution 1:32 of stock (amoxicillin 0.25 mg/ml; mix 0.25 mg/ml amoxicillin and 20 mg/ml extract)
[7] = Table 3, dilution 1:64 of stock (amoxicillin 0.25 mg/ml; mix 0.25 mg/ml amoxicillin and 20 mg/ml extract)
[8] = Table 3, dilution 1:128 of stock (amoxicillin 0.25 mg/ml; mix 0.25 mg/ml amoxicillin and 20 mg/ml extract)

CC1(C)S[C@@H]2[C@H](NC(=O)[C@H](N)c3ccc(O)cc3)C(=O)N2[C@H]1C(=O)O [Amoxicillin, amoxicillin]
inhibition at 250 µg/mL (stock) (S. pyogenes; Streptococcus pyogenes, Table 3, dilution 1:2 of stock (amoxicillin 0.25 mg/ml; mix 0.25 mg/ml amoxicillin and 20 mg/ml extract)): 100% | inhibition at 250 µg/mL (stock) (S. pyogenes; Streptococcus pyogenes, Table 3, dilution 1:4 of stock (amoxicillin 0.25 mg/ml; mix 0.25 mg/ml amoxicillin and 20 mg/ml extract)): 100% | inhibition at 250 µg/mL (stock) (S. pyogenes; Streptococcus pyogenes, Table 3, dilution 1:8 of stock (amoxicillin 0.25 mg/ml; mix 0.25 mg/ml amoxicillin and 20 mg/ml extract)): 100% | inhibition at 250 µg/mL (stock) (S. pyogenes; Streptococcus pyogenes, Table 3, dilution 1:16 of stock (amoxicillin 0.25 mg/ml; mix 0.25 mg/ml amoxicillin and 20 mg/ml extract)): 48.6% | inhibition at 250 µg/mL (stock) (S. pyogenes; Streptococcus pyogenes, Table 3, dilution 1:32 of stock (amoxicillin 0.25 mg/ml; mix 0.25 mg/ml amoxicillin and 20 mg/ml extract)): 40.6% | inhibition at 250 µg/mL (stock) (S. pyogenes; Streptococcus pyogenes, Table 3, dilution 1:64 of stock (amoxicillin 0.25 mg/ml; mix 0.25 mg/ml amoxicillin and 20 mg/ml extract)): 41.5% | inhibition at 250 µg/mL (stock) (S. pyogenes; Streptococcus pyogenes, Table 3, dilution 1:128 of stock (amoxicillin 0.25 mg/ml; mix 0.25 mg/ml amoxicillin and 20 mg/ml extract)): 42% | MIC (S. pyogenes; Streptococcus pyogenes, M17 broth, 37°C, anaerobic, 24 h): 16 µg/mL | MBC (S. pyogenes; Streptococcus pyogenes, M17 broth, 37°C, anaerobic, 24 h, complete inhibition of growth): 31 µg/mL | OD 480 nm (24 h) (S. pyogenes; [2]): 0.003 | OD 600 nm (24 h) (S. pyogenes; [2]): 0.002 | log10 (CFU/ml) (S. pyogenes; [2]): 0.00 log10 (CFU/ml) | OD 480 nm (24 h) (S. pyogenes; [3]): 0.001 | OD 600 nm (24 h) (S. pyogenes; [3]): 0.011 | log10 (CFU/ml) (S. pyogenes; [3]): 0.00 log10 (CFU/ml) | OD 480 nm (24 h) (S. pyogenes; [4]): 0.005 | OD 600 nm (24 h) (S. pyogenes; [4]): 0.026 | log10 (CFU/ml) (S. pyogenes; [4]): 0.00 log10 (CFU/ml) | OD 480 nm (24 h) (S. pyogenes; [5]): 0.057 | OD 600 nm (24 h) (S. pyogenes; [5]): 0.088 | log10 (CFU/ml) (S. pyogenes; [5]): 4.51 log10 (CFU/ml) | OD 480 nm (24 h) (S. pyogenes; [6]): 0.098 | OD 600 nm (24 h) (S. pyogenes; [6]): 0.137 | log10 (CFU/ml) (S. pyogenes; [6]): 5.20 log10 (CFU/ml) | OD 480 nm (24 h) (S. pyogenes; [7]): 0.120 | OD 600 nm (24 h) (S. pyogenes; [7]): 0.158 | log10 (CFU/ml) (S. pyogenes; [7]): 5.12 log10 (CFU/ml) | OD 480 nm (24 h) (S. pyogenes; [8]): 0.140 | OD 600 nm (24 h) (S. pyogenes; [8]): 0.161 | log10 (CFU/ml) (S. pyogenes; [8]): 5.08 log10 (CFU/ml)

COc1cc2[nH]c3c4c(c(C)cc3c2cc1OC)OC(C)(C)C=C4 [Koenigicine]
zone of inhibition at 3 µg/mL (S. pyogenes (ATCC 19615); ATCC19615, standard at 3 µg/ml, 0.1 ml per well, M17 agar, 37°C): ~20 mm

COc1ccc2[nH]c3c4c(c(C)cc3c2c1)OC(C)(C)C=C4 [Koenimbine]
zone of inhibition at 4 µg/mL (S. pyogenes (ATCC 19615); ATCC19615, standard at 4 µg/ml, 0.1 ml per well, M17 agar, 37°C): ~18 mm

CC(C)=CCCC1(C)C=Cc2c(c(C)cc3c2[nH]c2ccccc23)O1 (centres unmarked) [Mahanimbine]
zone of inhibition at 6 µg/mL (S. pyogenes (ATCC 19615); ATCC19615, read-out: inhibition zone): ~20 mm | % release ([1]; chewing gum of Example 5, chewing time 0.0 min): 0.0% | % release ([1]; chewing gum of Example 5, chewing time 5.0 min): 54.7% | % release ([1]; chewing gum of Example 5, chewing time 10.0 min): 51.5% | % release ([1]; chewing gum of Example 5, chewing time 15.0 min): 59.7% | % release ([1]; chewing gum of Example 5, chewing time 20.0 min): 54.7%
